Where two headings read alike, the source gives them in different places.
Type: physicochemical
Experimental: <Experiment 1. Test of Comparing Lead Dissolving Out Ability of Chelating Agent>
In order to study a kind of a chelating agent to be added to a contaminated soil, the lead dissolving out abilities of 26 types of chelating agents (chelate reagents) were compared (FIG. 2).
2) Chelating agent: Each chelating agent of 100 mmol·dm^−3 and pH 5.8 was prepared.
3) Five grams of 1) the subject soil and 50 ml of 2) the chelating agent were put into to a 100 ml vessel, and shaken (200 times/min) at 20° C. for 6 hours. Repeated cycle was 3.
4) For comparison, a contrast section was prepared, in which desalted water was added instead of the chelating agent in the 3).
5) After shaking, the sample after filtration was centrifuged at 15000 rpm for 5 minutes, and the supernatant liquid was further centrifuged again under the same condition.
6) From the separated supernatant liquid, a lead concentration was measured with an inductively coupled high frequency plasma spectrometry (ICP) device.

[1] = chelating agent 100 mmol·dm^−3, pH 5.8, Soil A, shaken at 20° C. for 6 hours, FIG. 2

Molecule | lead dissolving out ability [1] | lead dissolving out ability (pH 5.8)
tetrasodium L-glutamic acid diacetate [GLDA·4Na] | high lead dissolving out ability | –
O=C([O-])CC(NCCNC(CC(=O)O)C(=O)[O-])C(=O)[O-].[Na+].[Na+].[Na+] (stereo not shown) [EDDS·3Na, disodium ethylenediamine succinate] | – | high lead dissolving out ability
O=C(O)CC(O)(CC(=O)O)C(=O)O [citric acid] | – | high lead dissolving out ability
N[C@@H](CS)C(=O)O [L-cysteine] | high lead dissolving out ability | –

From US7829754B2, “Method of cleaning heavy metals-containing soil” (Chubu Electric Power Co., Inc., priority 2004, dated 2010)
